According to patent US20040110803A1, “Methods and compositions for the use of D-malic acid to decrease serum triglyceride, cholesterol and lipoprotein levels” (priority 2002, published 2004):
Where a name gives a salt, the structure may show the parent alone. Read-outs that look alike come from different tables or passages of the source.

Experiments:
Zucker fa/fa rat [1] = assay: Experiment II: L-, D,L- and D-malic acid in drinking water, food/water consumption, body weight, serum lipid/liver profile; conditions: for linear slope of body weight versus serum triglycerides, vs control and L-malic acid treated rats: FIG. 3, p≦0.01; for water consumption, means between groups: L-malic acid vs control at 10 and 11 weeks of treatment; for effect on serum lipid levels (hypolipidemic effect): oral, Zucker obese rat, conclusion in words
Experimental: (§1) In experiment II, forty male Zucker fa/fa rats at five to seven weeks of age began treatment similarly to the rats in Experiment I. At about 5 weeks of age, whole blood was collected from the tail caudal vein of each rat and lipid profiles were measured on the serum.
(§2) Food and water consumption was measured daily for each cage of two rats. Body weight was measured and tail caudal vein blood samples were collected at 6, 8, 10, 12, 14, 16, and 18 and 24 weeks of age. Rats received their oral treatment of malic acid isomers prior to the onset of hyperlipidemia and continued for 16 weeks. The lipid/liver profile was measured on the serum of each rate with the determination of serum triglycerides, total cholesterol, HDL, glucose, AST and ALT with the same procedures of Experiment I.
(§3) Experiment II. This follow-up experiment doubled the number of rats per group (ten/group) and included treatment groups to distinguish the roles of the D isomer and the L isomer of malic acid (Control, L-Malic, D,L-Malic, and D-Malic Acid).

liver mitochondria = conditions: for concentrations at which not metabolized by mitochondria: oxygen consumption, FIG. 5
Experimental: To determine the effect of D-malic acid on hepatic mitochondria, mitochondria from the Sprague Dawley rat used for isoenzyme studies were prepared according to the method of Johnson and Lardy (1967). The […] pellet was resuspended in cold sucrose buffer and recentrifuged at 600×g. This supernatant was mixed with the original 600×g supernatant. The 10,000×g mitochondria pellet was suspended in 5 mL of sucrose buffer. […] Consumption of oxygen was represented as percent of oxygen saturation.

Zucker fa/fa rat [2] = system: Zucker fa/fa rat
Experimental: After eight weeks of treatment, Experiment I was concluded with all ten rats being anesthetized with pentobarbital (40 mg/kg, i.p). […] In addition to body weight, the heart, liver, epididymal fat and left kidney were weighed. The aorta and a portion of the medial lobe of the liver were fixed in buffered 10% formalin and prepared for paraffin embedding and sectioning for pathological analysis.

Zucker fa/fa rat [3] = conditions: in vivo
Experimental: as §1, §2, §3

[4] = system: liver of Zucker fa/fa rat; assay: Experiment I: hepatic nucleotide analysis by HPLC of frozen-acid extracted liver; assay type: in vivo; conditions: 12 weeks treatment
Experimental: After eight weeks of treatment, Experiment I was concluded with all ten rats being anesthetized with pentobarbital (40 mg/kg, i.p). Immediately prior to the rat's euthanasia, a portion of the medial lobe of the liver was weighed, immediately frozen, pulverized and extracted in 12% perchloric acid in dry ice for nucleotide analysis. The acid extracted tissue was thawed, neutralized in saturated potassium bicarbonate and centrifuged at 10,000×g for 15 minutes. The final supernatant was analyzed for nucleotides by HPLC according to the method of Jenkins, et al (1988).

Zucker fa/fa rat [5] = assay: Experiment I: body weight and serum analysis of Zucker fa/fa rats given D,L-malic acid, sodium salt in drinking water; assay type: in vivo
Zucker fa/fa rat [6] = assay: as above; assay type: in vivo; set-up: Serum T Chol / Serum HDL / Serum LDL / Serum VLDL / Serum Glucose: unit not given here; conditions: for Body Wt. / Serum Glucose / Serum HDL / Serum T Chol / Serum Triglyceride / Serum BUN / Serum Creatine / Serum K+ / Serum Na+ / Serum ALT / Serum AST / Serum LDL / Serum VLDL: mean ± SEM; for Body Wt.: in g; for Serum BUN / Serum Creatine: in mg/dL (unit assumed); for Serum K+ / Serum Na+: in mmol/L (unit assumed); for Serum ALT / Serum AST: in U/L (unit assumed); for Serum VLDL: calculated
Source text: The Zucker fa/fa rat model was selected to test the effects of malic acid supplements to the diet. The Zucker fa/fa rat is a genetically obese rat associated to elevated leptin levels in the blood. Among humans and most animal models, leptin is known to […], leading to elevated caloric intake and obesity. Associated with the leptin production is an elevation in serum insulin (Giridharan 1998). Thus, obesity can arise from the increase food intake and/or the lipogenic effects of insulin on adipose tissue and liver.
Two separate experiments were conducted on the Zucker fa/fa rat. The first experiment served as a pilot study for the second. In Experiment I, ten male, 7-week-old Zucker fa/fa rats were divided into two parametric groups based upon the results of a clinical serum analysis for lipids, glucose, hepatic enzymes, and ions. […] The control group of five rats received only tap water. After 2, 4, 7, and 10 and 12 weeks of treatment, 1-2 mL whole blood was collect from each rat via the tail caudal vein and the serum retained for analysis. All serum analysis was conducted in the out-patient clinical laboratory of the University Hospital of the University of Alabama at Birmingham with a Synchron LX System. The following methods for each parameter are used in their automated clinical systems.

[7] = after 18 and 24 weeks of treatment, P≦0.01
[8] = after four and six weeks of treatment, but not beyond, P≦0.05
[9] = −2 weeks Treatment (before dosing)

SMILES: O=C(O)C[C@@H](O)C(=O)O [D-malic acid, D-malic acid, sodium salt]
- linear slope of body weight versus serum triglycerides, vs control and L-malic acid treated rats (Zucker fa/fa rat [1]): differs significantly
- water consumption, means between groups (Zucker fa/fa rat [1]): did not differ
- mean serum triglycerides compared to controls (Zucker fa/fa rat [1]; after 12 weeks and beyond of treatment, P≦0.05): lowered
- mean serum triglycerides vs controls (Zucker fa/fa rat [1]; [7]): decreased below controls
- effect on serum lipid levels (hypolipidemic effect) (Zucker fa/fa rat [1]): effective
- effect on the metabolism of L-malic acid by mitochondria (liver mitochondria; 20 umoles/5 mL D-malic acid): inhibited
- transport of L-malic acid into the mitochondria (liver mitochondria; mitochondrial incubations): partially blocks
- concentrations at which not metabolized by mitochondria (liver mitochondria): less than 40 umoles/5 mL
- concentrations at which not metabolized by mitochondria (liver mitochondria; converted): < 6.7 mM

SMILES: O=C(O)C[C@H](O)C(=O)O [L-malic acid, L-malic acid, sodium salt, reference compound]
- food consumption (rat chow consumed/rat/day) vs control (Zucker fa/fa rat [1]; 6 to 20 weeks of age): tended to eat more rat chow
- mean serum levels of triglycerides vs control (Zucker fa/fa rat [1]; 8 to 24 weeks of age): no significant difference
- mean serum total cholesterol vs control (Zucker fa/fa rat [1]; 8 to 24 weeks of age): no significant difference
- water consumption, means between groups (Zucker fa/fa rat [1]; sodium salt): Significant differences
- mean serum triglycerides vs controls (Zucker fa/fa rat [1]; after 24 weeks of age (18 weeks of treatment)): greater mean serum triglycerides than controls but not statistically significant
- mean serum glucose vs control (Zucker fa/fa rat [1]; only weeks 8 and 16, P≦0.05): sporadically (only weeks 8 and 16) elevated
- effect on serum lipid levels (hypolipidemic effect) (Zucker fa/fa rat [1]; listed as L-isomer of malic acid, sodium salt): no effect

SMILES: O=C(O)CC(O)C(=O)O (racemic) [D,L-malic acid, D,L-malic acid, sodium salt]
- histological examination of the aorta (Zucker fa/fa rat [2]; 12 week (20 weeks of age)): no pathology associated with plaque formation
- Percent Fatty Deposition in Hepatocytes, Mean of 200 cells/rat ± SEM (Zucker fa/fa rat [2]; 12 week treated, liver sections 8 um): 45.69 ± 0.62%
- Mean Organ Weights: Epididymal Fat (Zucker fa/fa rat [2]; 12 week treated, ± SEM): 0.350 ± .050 gram
- percent of fatty inclusions in hepatocytes vs control (Zucker fa/fa rat [2]; 200 hepatocytes, liver sections 8 um): no significant differences
- water consumption, means between groups (Zucker fa/fa rat [3]): did not differ
- hepatic tissue NAD levels vs control [4]: elevated but not significantly
- hepatic tissue levels of NADP vs control [4]: significantly elevated
- mean hepatic purine nucleotides vs control [4]: No significant differences
- Mean Hepatic Purine Dinucleotide Levels: NAD ([4]; ± SEM): 350 ± 23 nmoles/gm tissue wet wt.
- Mean Hepatic Purine Nucleotides Level: ADP ([4]; ± SEM): 125 ± 7 nmoles/gm tissue wet wt.
- Mean Hepatic Purine Nucleotides Level: AMP ([4]; ± SEM): 168 ± 18 nmoles/gm tissue wet wt.
- Mean Hepatic Purine Nucleotides Level: ATP ([4]; ± SEM): 556 ± 35 nmoles/gm tissue wet wt.
- Mean Hepatic Purine Nucleotides Level: Adenosine ([4]; ± SEM): 65 nmoles/gm tissue wet wt.
- Mean Hepatic Purine Dinucleotide Levels: NADP ([4]; ± SEM, significantly different P ≦ 0.05): 61.7 ± 3.8 nmoles/gm tissue wet wt.
- serum HDL cholesterol vs control (Zucker fa/fa rat [5]; after eight weeks of treatment, P≦0.05): significant decrease
- serum AST vs control (Zucker fa/fa rat [5]; [8]): significantly lowered
- serum total cholesterol vs control (Zucker fa/fa rat [5]; after six weeks of treatment, P≦0.05): significant decrease
- serum triglyceride levels vs control (Zucker fa/fa rat [5]; two to eight weeks of treatment, P≦0.01): significantly decreased
- linear slope of body weight versus serum triglycerides, vs control and L-malic acid treated rats (Zucker fa/fa rat [1]): differs significantly
- mean serum triglycerides vs controls (Zucker fa/fa rat [1]; [7]): decreased below controls
- effect on serum lipid levels (hypolipidemic effect) (Zucker fa/fa rat [1]): significant hypolipidemic effect
- Body Wt. (Zucker fa/fa rat [6]; 0 weeks Treatment (start of dosing)): 484 ± 10
- Serum Glucose (Zucker fa/fa rat [6]; 2 weeks Treatment): 167 ± 14
- Serum HDL (Zucker fa/fa rat [6]; 2 weeks Treatment): 92 ± 4
- Serum T Chol (Zucker fa/fa rat [6]; 2 weeks Treatment): 96 ± 5
- Serum Triglyceride (Zucker fa/fa rat [6]; 2 weeks Treatment): 358 ± 51 mg %
- Body Wt. (Zucker fa/fa rat [6]; 2 weeks Treatment): 553 ± 14
- Serum BUN (Zucker fa/fa rat [6]; 2 weeks Treatment): 13 ± 0.5
- Serum Creatine (Zucker fa/fa rat [6]; 2 weeks Treatment): .42 ± .02
- Serum K+ (Zucker fa/fa rat [6]; 2 weeks Treatment): 5.6 ± 0.3
- Serum Na+ (Zucker fa/fa rat [6]; 2 weeks Treatment): 141 ± 0.6
- Serum Glucose (Zucker fa/fa rat [6]; 4 weeks Treatment): 156 ± 12
- Serum HDL (Zucker fa/fa rat [6]; 4 weeks Treatment): 87 ± 3
- Serum T Chol (Zucker fa/fa rat [6]; 4 weeks Treatment): 99 ± 5
- Serum Triglyceride (Zucker fa/fa rat [6]; 4 weeks Treatment): 522 ± 82 mg %
- Serum ALT (Zucker fa/fa rat [6]; 4 weeks Treatment): 64 ± 4
- Serum AST (Zucker fa/fa rat [6]; 4 weeks Treatment): 145 ± 13
- Body Wt. (Zucker fa/fa rat [6]; 4 weeks Treatment): 592 ± 15
- Serum BUN (Zucker fa/fa rat [6]; 4 weeks Treatment): 12 ± 0.6
- Serum Creatine (Zucker fa/fa rat [6]; 4 weeks Treatment): .38 ± .02
- Serum K+ (Zucker fa/fa rat [6]; 4 weeks Treatment): 5.8 ± 0.1
- Serum Na+ (Zucker fa/fa rat [6]; 4 weeks Treatment): 143 ± 1.1
- Serum Glucose (Zucker fa/fa rat [6]; 7 weeks Treatment): 173 ± 10
- Serum HDL (Zucker fa/fa rat [6]; 7 weeks Treatment): 110 ± 5
- Serum T Chol (Zucker fa/fa rat [6]; 7 weeks Treatment): 120 ± 8
- Serum Triglyceride (Zucker fa/fa rat [6]; 7 weeks Treatment): 422 ± 44 mg %
- Serum ALT (Zucker fa/fa rat [6]; 7 weeks Treatment): 68 ± 2
- Serum AST (Zucker fa/fa rat [6]; 7 weeks Treatment): 126 ± 6
- Body Wt. (Zucker fa/fa rat [6]; 7 weeks Treatment): 660 ± 19
- Serum BUN (Zucker fa/fa rat [6]; 7 weeks Treatment): 11 ± 0.3
- Serum Creatine (Zucker fa/fa rat [6]; 7 weeks Treatment): .34 ± .02
- Serum K+ (Zucker fa/fa rat [6]; 7 weeks Treatment): 5.4 ± 0.2
- Serum Na+ (Zucker fa/fa rat [6]; 7 weeks Treatment): 144 ± 0.4
- Serum Glucose (Zucker fa/fa rat [6]; 10 weeks Treatment): 141 ± 10
- Serum HDL (Zucker fa/fa rat [6]; 10 weeks Treatment): 107 ± 10
- Serum LDL (Zucker fa/fa rat [6]; 10 weeks Treatment): 1.4 ± 1.4
- Serum T Chol (Zucker fa/fa rat [6]; 10 weeks Treatment): 123 ± 14
- Serum Triglyceride (Zucker fa/fa rat [6]; 10 weeks Treatment): 430 ± 39 mg %
- Serum VLDL (Zucker fa/fa rat [6]; 10 weeks Treatment): 4 ± 4
- Serum ALT (Zucker fa/fa rat [6]; 10 weeks Treatment): 69 ± 4
- Serum AST (Zucker fa/fa rat [6]; 10 weeks Treatment): 94 ± 2
- Body Wt. (Zucker fa/fa rat [6]; 10 weeks Treatment): 708 ± 26
- Serum BUN (Zucker fa/fa rat [6]; 10 weeks Treatment): 16 ± 1.2
- Serum Creatine (Zucker fa/fa rat [6]; 10 weeks Treatment): .32 ± .02
- Serum K+ (Zucker fa/fa rat [6]; 10 weeks Treatment): 6.6 ± 0.2
- Serum Na+ (Zucker fa/fa rat [6]; 10 weeks Treatment): 143 ± 0.8
- Serum Glucose (Zucker fa/fa rat [6]; 12 weeks Treatment): 153 ± 9
- Serum HDL (Zucker fa/fa rat [6]; 12 weeks Treatment): 117 ± 9
- Serum LDL (Zucker fa/fa rat [6]; 12 weeks Treatment): 6 ± 0.4
- Serum T Chol (Zucker fa/fa rat [6]; 12 weeks Treatment): 137 ± 14
- Serum Triglyceride (Zucker fa/fa rat [6]; 12 weeks Treatment): 437 ± 35 mg %
- Serum VLDL (Zucker fa/fa rat [6]; 12 weeks Treatment): 14 ± 5
- Serum ALT (Zucker fa/fa rat [6]; 12 weeks Treatment): 71 ± 6
- Serum AST (Zucker fa/fa rat [6]; 12 weeks Treatment): 115 ± 16
- Body Wt. (Zucker fa/fa rat [6]; 12 weeks Treatment): 722 ± 30
- Serum Creatine (Zucker fa/fa rat [6]; 12 weeks Treatment): .34 ± .02
- Serum K+ (Zucker fa/fa rat [6]; 12 weeks Treatment): 6.4 ± 0.1
- Serum Na+ (Zucker fa/fa rat [6]; 12 weeks Treatment): 141 ± 0.6
- serum ALT vs control (Zucker fa/fa rat [6]; [8]): significantly lowered
- serum glucose, sodium, or potassium, HCO3, chloride, and BUN levels vs control (Zucker fa/fa rat [6]; in words): no detectable affect
- serum triglyceride levels vs control (Zucker fa/fa rat [6]; ten and twelve weeks of treatment, P≦0.001): differences were more remarkable
- effect on body weight (Zucker fa/fa rat [6]; vs control, in words): no effect
- Serum Glucose (Zucker fa/fa rat [6]; [9]): 147 ± 2
- Serum HDL (Zucker fa/fa rat [6]; [9]): 90 ± 3
- Serum T Chol (Zucker fa/fa rat [6]; [9]): 91 ± 4
- Serum Triglyceride (Zucker fa/fa rat [6]; [9]): 387 ± 41 mg %
- Body Wt. (Zucker fa/fa rat [6]; [9]): 359 ± 6
- Serum BUN (Zucker fa/fa rat [6]; [9]): 21 ± 0.9
- Serum Creatine (Zucker fa/fa rat [6]; [9]): 0.46 ± 0.02
- Serum K+ (Zucker fa/fa rat [6]; [9]): 6.1 ± 0.2
- Serum Na+ (Zucker fa/fa rat [6]; [9]): 147 ± 0.2
